Measured values published in patent US20150105252A1, “SUBSTITUTED PYRAZOLES AS HERBICIDES” (E I DU PONT DE NEMOURS AND COMPANY, priority 2013, published 2015).

How the values were obtained:
barnyardgrass [1] = assay: Test A preemergence; format: in vivo, Echinochloa crus-galli; conditions: preemergence
How it was run: (§1)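 Growth medium: loam soil blended with sand. Preemergence treatment used a directed soil spray right after planting; postemergence treatment targeted seedlings at one to two leaves (2–10 cm height). Response was judged by eye relative to untreated plants about 10 days later on a 0–100 control scale.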

crabgrass, large [2] = assay: Test A preemergence; format: in vivo, Digitaria sanguinalis; conditions: preemergence; for Crabgrass, Large plant response rating (0 to 100 scale): 125 g ai/ha, visual injury approx. 10 days after treatment; for Crabgrass, Large plant response rating: 500 g ai/ha, visual injury after approx. 10 days, 0 to 100 scale (0 no effect, 100 complete control)
How it was run: as §1

barnyardgrass [3] = assay: Test A postemergence; format: in vivo, Echinochloa crus-galli
How it was run: as §1

crabgrass, large [4] = assay: Test A postemergence; format: in vivo, Digitaria sanguinalis
How it was run: as §1

pigweed = assay: Test A postemergence; format: in vivo, Amaranthus retroflexus
How it was run: as §1

nutsedge, yellow = assay: Test C preemergence; format: in vivo, Cyperus esculentus
How it was run: (§2)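 Greenhouse pot test: preemergence application onto freshly seeded loam/sand mix, postemergence application onto seedlings (1–4 leaves, 2–18 cm) in peat-vermiculite substrate. Responses scored visually 13 to 15 days later relative to controls, where 0 means no effect and 100 means complete control; a dash indicates no result.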

soybean [5] = assay: Test C preemergence; format: in vivo, Glycine max
How it was run: as §2

oilseed rape [6] = assay: Test C preemergence; format: in vivo, Brassica napus
How it was run: as §2

velvetleaf [7] = assay: Test C preemergence; format: in vivo, Abutilon theophrasti
How it was run: as §2

wheat = assay: Test C postemergence; format: in vivo, Triticum aestivum; conditions: postemergence; for Plant response rating, Wheat: 250 g ai/ha, scale 0 to 100 (0 no effect, 100 complete control); for Wheat plant response rating: scale 0 to 100
How it was run: as §2

corn = assay: Test C postemergence; format: in vivo, Zea mays; conditions: for Plant response rating (scale of 0 to 100 where 0 is no effect and 100 is complete control), Corn: Postemergence, 31 g ai/ha, visually evaluated after 13 to 15 days; for Corn plant response rating / Plant response rating, Corn: postemergence; for Corn plant response rating: 62 g ai/ha, scale 0 to 100
How it was run: as §2

soybean [8] = assay: Test C postemergence; format: in vivo, Glycine max; conditions: postemergence; for Plant response rating, Soybean: 250 g ai/ha, scale 0 to 100 (0 no effect, 100 complete control); for Soybean plant response rating: 125 g ai/ha, scale 0 to 100, 0 no effect, 100 complete control
How it was run: as §2

barnyardgrass [9] = assay: Test C postemergence; format: in vivo, Echinochloa crus-galli; conditions: for Plant response rating (scale of 0 to 100 where 0 is no effect and 100 is complete control), Barnyardgrass: Postemergence, 31 g ai/ha, visually evaluated after 13 to 15 days; for Barnyardgrass plant response rating / Plant response rating, Barnyardgrass: postemergence; for Barnyardgrass plant response rating: 62 g ai/ha, scale 0 to 100
How it was run: as §2

oilseed rape [10] = assay: Test C postemergence; format: in vivo, Brassica napus; conditions: postemergence; for Oilseed Rape plant response rating: 62 g ai/ha, scale 0 to 100
How it was run: as §2

velvetleaf [11] = assay: Test C postemergence; format: in vivo, Abutilon theophrasti; conditions: postemergence; for Plant response rating, Velvetleaf: 250 g ai/ha, scale 0 to 100 (0 no effect, 100 complete control); for Velvetleaf plant response rating: scale 0 to 100
How it was run: as §2

velvetleaf [12] = assay: Test A preemergence; format: in vivo, Abutilon theophrasti; conditions: preemergence
How it was run: as §1

[13] = 125 g ai/ha, visual injury approx. 10 days after treatment
[14] = 500 g ai/ha, visual injury after approx. 10 days, 0 to 100 scale (0 no effect, 100 complete control)
[15] = Postemergence, 125 g ai/ha, 0 to 100 scale, 0 no effect, 100 complete control
[16] = Postemergence, 500 g ai/ha, 0 to 100 scale (0 no effect, 100 complete control)
[17] = Preemergence, rate head not shown (block before 16 g ai/ha), scale 0 to 100
[18] = preemergence, 62 g ai/ha, scale 0 to 100 (0 no effect, 100 complete control), 13 to 15 days
[19] = preemergence, 125 g ai/ha, 13 to 15 days, scale 0 to 100, 0 = no effect, 100 = complete control
[20] = preemergence, 250 g ai/ha, scale 0 to 100, 0 is no effect, 100 is complete control
[21] = 250 g ai/ha, scale 0 to 100 (0 no effect, 100 complete control)
[22] = 125 g ai/ha, scale 0 to 100, 0 no effect, 100 complete control
[23] = postemergence, 125 g ai/ha, about 10 days, visual rating on 0 to 100 scale (0 no effect, 100 complete control)
[24] = preemergence, 31 g ai/ha, visual rating, scale 0 to 100 (0 no effect, 100 complete control), 13 to 15 days

## CCc1cc(C(=O)NC2CC2)nn1Cc1ccnc(Br)c1 [Compound 220]
Barnyardgrass [1]; [13]
  Barnyardgrass plant response rating (0 to 100 scale, 0 is no effect, 100 is complete control): 80
Barnyardgrass [1]; [14]
  Barnyardgrass plant response rating: 100
crabgrass, large [2]
  Crabgrass, Large plant response rating (0 to 100 scale): 100
  Crabgrass, Large plant response rating: 100
Barnyardgrass [3]; [15]
  Barnyardgrass plant response rating: 80
Barnyardgrass [3]; [16]
  Barnyardgrass plant response rating: 100
crabgrass, large [4]; [15]
  Crabgrass, Large plant response rating: 90
crabgrass, large [4]; [16]
  Crabgrass, Large plant response rating: 100
pigweed; [15]
  Pigweed plant response rating: 90
pigweed; [16]
  Pigweed plant response rating: 100
nutsedge, yellow; [17]
  Plant response rating, Nutsedge, Yellow: 0
nutsedge, yellow; [18]
  Nutsedge, Yellow plant response rating: 0
nutsedge, yellow; [19]
  Plant response rating, Nutsedge, Yellow: 5
nutsedge, yellow; [20]
  Nutsedge, Yellow plant response rating: 5
Soybean [5]; [17]
  Plant response rating, Soybean: 10
Soybean [5]; [18]
  Soybean plant response rating: 10
Soybean [5]; [19]
  Plant response rating, Soybean: 35
Soybean [5]; [20]
  Soybean plant response rating: 60
Oilseed rape [6]; [17]
  Plant response rating, Oilseed Rape: 80
Oilseed rape [6]; [18]
  Oilseed Rape plant response rating: 30
Oilseed rape [6]; [19]
  Plant response rating, Oilseed Rape: 85
Oilseed rape [6]; [20]
  Oilseed Rape plant response rating: 95
Velvetleaf [7]; [17]
  Plant response rating, Velvetleaf: 5
Velvetleaf [7]; [18]
  Velvetleaf plant response rating: 20
Velvetleaf [7]; [19]
  Plant response rating, Velvetleaf: 75
Velvetleaf [7]; [20]
  Velvetleaf plant response rating: 100
wheat
  Plant response rating, Wheat: 5
  Wheat plant response rating: 0
corn
  Plant response rating (scale of 0 to 100 where 0 is no effect and 100 is complete control), Corn: 5
  Corn plant response rating: 5
corn; [21]
  Plant response rating, Corn: 10
corn; [22]
  Plant response rating, Corn: 5
Soybean [8]
  Plant response rating, Soybean: 75
  Soybean plant response rating: 30
Barnyardgrass [9]
  Plant response rating (scale of 0 to 100 where 0 is no effect and 100 is complete control), Barnyardgrass: 0
  Barnyardgrass plant response rating: 0
Barnyardgrass [9]; [21]
  Plant response rating, Barnyardgrass: 15
Barnyardgrass [9]; [22]
  Plant response rating, Barnyardgrass: 10
Oilseed rape [10]
  Oilseed Rape plant response rating: 5
Oilseed rape [10]; [21]
  Plant response rating, Oilseed Rape: 40
Oilseed rape [10]; [22]
  Plant response rating, Oilseed Rape: 30
Velvetleaf [11]
  Plant response rating, Velvetleaf: 40
  Velvetleaf plant response rating: 45

## CCNC(=O)c1cc(CC)n(Cc2cc(C(F)(F)F)nn2C)n1 [Compound 154]
Barnyardgrass [1]; 125 g ai/ha, visual injury, 0 to 100 scale, approx. 10 days
  Barnyardgrass plant response rating: 90
Barnyardgrass [1]; [14]
  Barnyardgrass plant response rating: 100
crabgrass, large [2]
  Crabgrass, Large plant response rating (0 to 100 scale): 100
  Crabgrass, Large plant response rating: 100
Velvetleaf [12]; [13]
  Velvetleaf plant response rating (0 to 100 scale): 90
Velvetleaf [12]; [14]
  Velvetleaf plant response rating: 100
Barnyardgrass [3]; [16]
  Barnyardgrass plant response rating: 100
Barnyardgrass [3]; [23]
  Barnyardgrass plant response rating: 100
crabgrass, large [4]; [16]
  Crabgrass, Large plant response rating: 100
crabgrass, large [4]; [23]
  Crabgrass, Large plant response rating: 100
pigweed; [16]
  Pigweed plant response rating: 100
pigweed; [23]
  Pigweed plant response rating: 100
nutsedge, yellow; [24]
  Nutsedge, Yellow plant response rating: 0
nutsedge, yellow; [18]
  Nutsedge, Yellow plant response rating: 15
nutsedge, yellow; [19]
  Plant response rating, Nutsedge, Yellow: 35
nutsedge, yellow; [20]
  Nutsedge, Yellow plant response rating: 60
Soybean [5]; [24]
  Soybean plant response rating: 35
Soybean [5]; [18]
  Soybean plant response rating: 80
Soybean [5]; [19]
  Plant response rating, Soybean: 95
Soybean [5]; [20]
  Soybean plant response rating: 98
Oilseed rape [6]; [24]
  Oilseed Rape plant response rating: 85
Oilseed rape [6]; [18]
  Oilseed Rape plant response rating: 95
Oilseed rape [6]; [19]
  Plant response rating, Oilseed Rape: 95
Oilseed rape [6]; [20]
  Oilseed Rape plant response rating: 95
Velvetleaf [7]; [24]
  Velvetleaf plant response rating: 10
Velvetleaf [7]; [18]
  Velvetleaf plant response rating: 40
Velvetleaf [7]; [19]
  Plant response rating, Velvetleaf: 90
Velvetleaf [7]; [20]
  Velvetleaf plant response rating: 100
wheat
  Plant response rating, Wheat: 10
  Wheat plant response rating: 5
corn
  Plant response rating (scale of 0 to 100 where 0 is no effect and 100 is complete control), Corn: 5
  Corn plant response rating: 5
corn; [21]
  Plant response rating, Corn: 10
corn; [22]
  Plant response rating, Corn: 10
Soybean [8]
  Plant response rating, Soybean: 90
  Soybean plant response rating: 85
Barnyardgrass [9]
  Plant response rating (scale of 0 to 100 where 0 is no effect and 100 is complete control), Barnyardgrass: 5
  Barnyardgrass plant response rating: 5
Barnyardgrass [9]; [21]
  Plant response rating, Barnyardgrass: 10
Barnyardgrass [9]; [22]
  Plant response rating, Barnyardgrass: 5
Oilseed rape [10]
  Oilseed Rape plant response rating: 45
Oilseed rape [10]; [21]
  Plant response rating, Oilseed Rape: 70
Oilseed rape [10]; [22]
  Plant response rating, Oilseed Rape: 60
Velvetleaf [11]
  Plant response rating, Velvetleaf: 55
  Velvetleaf plant response rating: 25
